Measurements from PMC6150025, “Novel Mixed-Type Inhibitors of Protein Tyrosine Phosphatase 1B. Kinetic and Computational Studies” (Molecules : A Journal of Synthetic Chemistry and Natural …, 2017).

Tests used:
[1] = target: T1, PTP1B (Homo sapiens, UniProt P18031); assay: PTP1B enzymatic inhibition assay (pNPP substrate); format: biochemical
T1 construct: encodes for PTP1B (residues 1–321); inferred from the pET28A vector, NdeI/BamHI cloning and Ni-agarose purification) (N); made in house; host or cells: E. coli BLR
T1 sequence (P18031 1-321): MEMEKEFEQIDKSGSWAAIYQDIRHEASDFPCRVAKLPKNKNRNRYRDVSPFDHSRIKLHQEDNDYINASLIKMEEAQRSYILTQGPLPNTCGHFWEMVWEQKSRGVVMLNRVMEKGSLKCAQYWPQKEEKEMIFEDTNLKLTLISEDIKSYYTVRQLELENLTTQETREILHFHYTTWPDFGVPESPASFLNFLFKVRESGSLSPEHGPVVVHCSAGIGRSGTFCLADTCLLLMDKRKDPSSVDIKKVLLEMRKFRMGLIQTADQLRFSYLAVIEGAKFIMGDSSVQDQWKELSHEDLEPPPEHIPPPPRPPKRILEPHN
Procedure: The PTP1B activity was measured based on the Goldstein method. The assay was performed with a final reaction volume of 500 µL in HEPES buffer (50 mM HEPES, 1mM DTT, 2 mM EDTA and 150 mM NaCl, pH 7.0), DMSO (10%) and p-nitrophenol phosphate (pNPP) as substrate (50 mM), the reaction was started with the PTP1B (1.5 µg/mL). After 30 min of incubation at 37 °C, the reaction was stopped by the addition of 500 µL of NaOH 5N reading the absorbance at 405 nm. The number of hydrolyzed moles of pNPP was determined using the molar extinction coefficient of the product pNP (18,500 M^−1 cm^−1).
Inhibition assays were performed under the above described conditions, adding to the reaction each one of the molecules at a final concentration of 200 µM. The concentration that inhibits 50% (IC50) of the PTP1B activity was determined through curves at different concentration of each compound, adjusting the data to the equation reported elsewhere. The inhibition type and constant were obtained by the measurement of the initial velocities of hydrolysis varying the substrate concentration in a range of 2–30 µM, in absence or presence of fixed concentrations of each inhibitor. For compound 1 the concentrations used were 3, 6, 10 and 20 µM; in the case of compound 2 were 2, 4, 6, 8, and 10 µM; and for compound 3 were 20, 50, 70 and 90 µM. The experimental data were analyzed through the Lineweaver-Burk plot using the software Sigma Plot V12.3 (Systat Software, Inc., San Jose, CA, USA).

[2] = 200 µM compound, pNPP 50 mM, 30 min, 37 °C

## CC(=O)Nc1nc2cc(Oc3cccc(Cl)c3Cl)c(Cl)cc2n1C [Compound 9, N-[6-Chloro-5-(2,3-dichlorophenoxy)-1-methyl-1H-benzimidazol-2-yl]acetamide]
[1]; [2]
  inhibition at 200 µM: 70%
other
  melting point: 237.5 to 238.9 °C

## OCc1ccccc1N1CCOCC1 [(2-morpholinophenyl)methanol]
[1]; Table S1, 200 µM compound
  inhibition at 200 µM: 44%

## COc1cc(C=NNC(=O)CSCc2c(C)c(C)c(C)c(C)c2C)cc(OC)c1OC [N'1-(3,4,5-trimethoxybenzylidene)-2-[(2,3,4,5,6-pentamethylbenzyl)thio]ethanohydrazide]
[1]; Table S1, 200 µM compound
  % Inhibition (200 µM): 63%

## O=C(NNS(=O)(=O)c1cc(C(F)(F)F)cc(C(F)(F)F)c1)c1cnn(-c2ccccc2)c1C(F)(F)F [N'1-{[1-phenyl-5-(trifluoromethyl)-1H-pyrazol-4-yl]carbonyl}-3,5-di(trifluoromethyl)benzene-1-sulfonohydrazide]
[1]; Table S1, 200 µM compound
  % Inhibition (200 µM): 45%

## COC(=O)c1cc2nc(SCC(=O)Nc3ccc([N+](=O)[O-])cn3)[nH]c2cc1Cl [methyl 6-chloro-2-({2-[(5-nitropyridin-2-yl)amino]-2-oxoethyl}sulfanyl)-1H-benzimidazole-5-carboxylate]
[1]; Table S1, 200 µM compound
  % Inhibition (200 µM): 63%

## Cc1cc(-c2nn(C)c(=O)c3ccccc23)cc(C)c1OCC(=O)NNC(=O)Nc1ccccc1 [N1-phenyl-2-{2-[2,6-dimethyl-4-(3-methyl-4-oxo-3,4-dihydrophthalazin-1-yl)phenoxy]acetyl}hydrazine-1-carboxamide]
[1]; Table S1, 200 µM compound
  % Inhibition (200 µM): 52%

## COC(=O)c1cc(S(=O)(=O)NCC2CN(Cc3ccccc3)CN(Cc3ccccc3)C2)oc1C [methyl 5-({[(1,3-dibenzylhexahydro-5-pyrimidinyl)methyl]amino}sulfonyl)-2-methyl-3-furoate]
[1]; Table S1, 200 µM compound
  % Inhibition (200 µM): 50%

## CSc1nc2cc(C(=O)N/N=C/c3ccc([N+](=O)[O-])o3)ccc2n1C [1-methyl-2-(methylsulfanyl)-N'-[(E)-(5-nitrofuran-2-yl)methylidene]-1H-benzimidazole-5-carbohydrazide]
[1]; Table S1, 200 µM compound
  % Inhibition (200 µM): 34%

## COc1cc(C(CC(=O)O)CC(=O)N2CCC(n3cccc3)CC2)cc(OC)c1OC (stereo not shown) [5-oxo-5-[4-(1H-pyrrol-1-yl)piperidino]-3-(3,4,5-trimethoxyphenyl)pentanoic acid]
[1]; Table S1, 200 µM compound
  % Inhibition (200 µM): 38%

## CSc1nc2cc(C(=O)Nc3nc4cc(Oc5cccc(Cl)c5Cl)c(Cl)cc4[nH]3)ccc2n1C [N-[6-chloro-5-(2,3-dichlorophenoxy)-1H-benzimidazol-2-yl]-1-methyl-2-(methylsulfanyl)-1H-benzimidazole-5-carboxamide]
[1]; Table S1, 200 µM compound
  % Inhibition (200 µM): 42%

## O=C1COc2cc(O)ccc21 [6-hydroxy-2,3-dihydrobenzo[b]furan-3-one]
[1]; Table S1, 200 µM compound
  % Inhibition (200 µM): 37%

## O=C(Nc1nc2cc(Oc3cccc(Cl)c3Cl)c(Cl)cc2[nH]1)C(F)(F)F [Compound 3, N-[6-Chloro-5-(2,3-dichlorophenoxy)-1H-benzimidazol-2-yl]-2,2,2-trifluoroacetamide]
[1]; [2]
  inhibition at 200 µM: 92%
[1]; Lineweaver-Burk analysis, mixed type model
  Ki: 41.3 µM
[1]; Lineweaver-Burk plots
  Inhibition Type: Mixed
[1]; curves at different concentration of each compound
  IC50: 31.3 µM
[1]; from fit of the kinetic data for each inhibitor
  Vmax: 10 µmol/min/mg
[1]; mixed type inhibition model
  α: 3.3
[1]; pNPP, from fit of the kinetic data for each inhibitor
  Km: 4.1 mM
